Data on one molecule can be found in US9925231B2, “Formulations of guanylate cyclase C agonists and methods of use” (SYNERGY PHARMACEUTICALS, INC., priority 2010, dated 2018).

Where a SMILES comes first, the peptide text is derived from it. Bridges are numbered along the chain shown (N, C = ends).

Data set [1] relates to patients with chronic idiopathic constipation (CIC). Put plainly: Clinical study in CIC patients: pharmacodynamic effects (efficacy), bowel habits. The class given is in vivo, Humans. Particulars: for time to first bowel movement: after daily dose. The protocol: (§1) A randomized, double-blind, placebo-controlled, 14-day repeat oral, dose ranging study was conducted in patients with chronic idiopathic constipation (CIC). […] One secondary objective was to assess the pharmacokinetic profile of SP-304 in plasma.
(§2) Subjects diagnosed with CIC were screened for the anticipated 4 cohorts to yield 80 randomized subjects for enrollment. […] Subjects who continued to meet all the entry criteria and complete the pre-treatment bowel movement (BM) diary received, in a double-blind, randomized fashion, SP-304 or matching placebo. The entry criteria included (1) meeting modified ROME III criteria for chronic constipation (CC); (2) no significant finding in colonoscopy within past 5 years; (3) good health as determined by physical examination, medical history, vital signs, ECG, clinical chemistry, hematology, urinalysis, drug screen and serology assessments; and (4) during 14-day pre-treatment period, subjects reporting <6 SBM and <3 CSBM in each pre-treatment week.

Data set [2] can be described thus: Excipient compatibility: percent purity (HPLC) of SP-304 in binary mixtures stored at 40 C/75RH. The format is physicochemical. An excerpt: For solid excipients the binary mixtures were comprised of 9.1% or 50% excipient. Glass vials were stored at 40 C/75RH open or closed.
Data set [3] concerns patients with chronic idiopathic constipation (CIC). The class given is in vivo. The protocol:
as §1, §2
(§3) The majority of adverse events were mild/moderate and transient in nature. […] The table below is a GI-related adverse event (AE) summary.

Data set [4] is described as follows: Clinical study in CIC patients: pharmacokinetic profile of SP-304 in plasma. Particulars: oral, 14 days, assay sensitivity ≥10 ng/mL. The class given is in vivo, Humans. As for the experimental part: as §1, §2, §3
Setting [5] is: daily treatment 14 days, CIC patients.
The mark [6] stands for this setting: 14-day repeat oral dosing, CIC patients.

As to `CC(C)C[C@H](NC(=O)[C@@H]1CSSC[C@@H]2NC(=O)[C@H](CC(C)C)NC(=O)[C@H](CCC(=O)O)NC(=O)[C@@H](NC(=O)[C@H](CCC(=O)O)NC(=O)[C@H](CC(=O)O)NC(=O)[C@@H](N)CC(N)=O)CSSC[C@H](NC(=O)[C@H](C)NC(=O)[C@H](C(C)C)NC(=O)[C@H](CC(N)=O)NC(=O)[C@H](C(C)C)NC2=O)C(=O)N[C@@H]([C@@H](C)O)C(=O)NCC(=O)N1)C(=O)O` [SP-304, Asn^1-Asp^2-Glu^3-Cys^4-Glu^5-Leu^6-Cys^7-Val^8-Asn^9-Val^10-Ala^11-Cys^12-Thr^13-Gly^14-Cys^15-Leu^16] (H-NDECELCVNVACTGCL-OH; disulfide 4-12, 7-15), the stool consistency entry in data set [1] (Bristol Stool Form Scale, daily treatment 14 days) was “improved”. Moreover, the “time to first bowel movement” value in data set [1] (CIC patients) was “decreased”. Moreover, the “time to first bowel movement” value in data set [1] (CIC patients, listed as Plecanatide) is “reduced”. In data set [1] (setting [5]), the abdominal discomfort entry was “reduced”, the “stool frequency (CSBM)” value is given as “increased”, the “stool frequency (SBM)” value was “increased” and the straining result is reported as “reduced”. Also, in data set [2] (closed glass vial, 1 month), the “percent purity of SP-304 (HPLC), Closed 1 M” value worked out at 91.4%. In data set [2] (closed glass vial, 2 months), the “percent purity of SP-304 (HPLC), Closed 2 M” value was 88.2%. Further, the “percent purity of SP-304 (HPLC), Open 0.5 M” value in data set [2] (open glass vial, 0.5 month) is on record as 93.7%. Moreover, in data set [2] (open glass vial, 1 month), the “percent purity of SP-304 (HPLC), Open 1 M” value is given as 91.2%. In data set [2] (open glass vial, 2 months), the “percent purity of SP-304 (HPLC), Open 2 M” value stood at 88.2%. Further, in data set [2] (open glass vial, 3 months), the “percent purity of SP-304 (HPLC), Open 3 M” value came to 84.8%. For the same molecule, in data set [3] (setting [6]), the deaths result is “no deaths reported” and the “serious adverse events (SAE)” value was “No serious adverse events”. In addition, in data set [3] (human, in vivo), the diarrhea result was “no diarrhea reported”, the “subjects reporting GI-related adverse events considered as related to treatment” value is listed as 5.2% and the “subjects reporting adverse events considered as related to the treatment” value is reported as 17.2%. The “systemic absorption of plecanatide” value in data set [4] was “no detectable systemic absorption”.
